Among the test systems are BT-549; DU-145; T47D; SNB-78; XF498; M19-MEL; HOP-18; LXFL 529; RXF 631.
Experiment in all cases: inhibition of tumour cell growth, NCI panel, 48 h

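Step 1: Grow cells in 96-well plates. Step 2: Expose to compound for 48 hours at 5 concentrations. Step 3: Interpolate endpoints linearly; if unreached, use highest concentration. GI50 = concentration required for 50% inhibition of growth.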 Calls of active or inactive are those of the source. Rule as the data show it: active = GI50 up to about 1.1 µM and inactive = higher. Non-standard residues stand in square brackets, D forms with d. Residues, ends and D or L forms follow the SMILES beside them. ξ: configuration not given here. Pentanoyl(2-O,4-OH,5-Cl) = O=C(O)C(O)CC(O)CCl; Ile(3ξ) = CCC(C)[C@H](N)C(=O)O; NMeV = CN[C@H](C(=O)O)C(C)C; NMeA = CN[C@@H](C)C(=O)O; βAla = NCCC(=O)O Bounds are passed on as bounds.

As to `Nc1ccc(N(S(=O)(=O)c2ccccc2)S(=O)(=O)c2ccccc2)c(Cl)c1`, the GI50 is 56.5 µM (inactive) in the assay with BT-549, 95.7 µM (inactive) with DU-145 and 48.1 µM (inactive) with T47D.

`COC1C(O)C(n2ncc3c(SC)nc(SC)nc32)OC1C(O)CO` (centres undefined): the GI50 in the assay with SNB-78, in the assay on XF498, in the assay on M19-MEL and with HOP-18 was > 100 µM (inactive) each time.

Turning to `O=C1NC(=O)C(CCO)(c2ccccc2)C(=O)N1`, the GI50 was > 100 µM (inactive) with SNB-78, > 68.4 µM (inactive) in the assay with XF498, > 100 µM (inactive) with M19-MEL and > 100 µM (inactive) in the assay with HOP-18.

On to `Nc1ccccc1S(=O)(=O)c1ccccc1`, for which the GI50 in the assay with LXFL 529, with M19-MEL, in the assay on HOP-18 and in the assay with RXF 631 was > 100 µM (inactive) in each case.

As to `CCC1OC2C(CC=C(C)C)=C3OC(C)(O)C(C)(CC)C(OC(C)=O)C3=C3OC(=O)C=C1C32` (centres undefined), the GI50 in the assay on BT-549 is 21.5 µM (inactive); in the assay on DU-145, 39.6 µM (inactive); with T47D it was 37.8 µM (inactive).

Consider `CC(C)(C)/N=c1/n(C(C)(C)C)oc(=O)n1C(C)(C)C`, for which the GI50 in the assay with BT-549 is > 100 µM (inactive).

Regarding `CC(C)CC(N)C(=O)NC(CNC(CCC(N)=O)C(=O)NC(CC(C)C)C(=O)NC(CC(C)C)C(=O)O)Cc1ccc2ccccc2c1` (centres undefined), the GI50 with BT-549 and in the assay on DU-145 was > 10 µM (inactive) in each case.

As for `CN(C)c1ccc(C2CC(=O)CC(c3ccc(N(C)C)cc3)C23C(=O)NC(=O)NC3=O)cc1` (centres undefined), the GI50 in the assay with BT-549 is 23 µM (inactive); with DU-145 it was > 25 µM (inactive); with T47D, > 25 µM (inactive).

As for `CC(=O)O[C@H]1C[C@@H](OC(C)=O)[C@@](C)(O)[C@@H]2[C@@H](OC(C)=O)[C@@]3(O)[C@H](/C=C(/CCl)[C@H]4O[C@H]4[C@@H](OC(C)=O)[C@@]12C)OC(=O)[C@@H]3C`, the GI50 in the assay with BT-549, with DU-145 and in the assay on T47D was > 25 µM (inactive) throughout.

With `O/N=C1\CSc2ccccc2C1`, the GI50 in the assay with DU-145 and with T47D was > 100 µM (inactive) each time.

Take `Cc1c(Cl)c(=O)oc2cc(OCC(=O)c3ccccc3)ccc12`: the GI50 in the assay on BT-549, in the assay with DU-145 and in the assay with T47D was > 100 µM (inactive) each time.

For the compound `O=C(Nc1ccccc1)OCCN=C1c2ccccc2C(Br)C(Br)c2ccccc21` (centres undefined), the values for the GI50 in the assay on DU-145 and in the assay on T47D were 9.16 µM (inactive) and 8.69 µM (inactive), respectively.

As for `N#CCCC(CCC#N)(CCC#N)NO`, the GI50 in the assay with BT-549, in the assay with DU-145 and with T47D was > 100 µM (inactive) each time.

In the case of `Cc1ccc(NC(=O)/C(=N/N(C)C)C(C2OC(=O)c3ccccc32)[N+](=O)[O-])cc1` (centres undefined), the GI50 in the assay with BT-549 and in the assay with T47D was > 100 µM (inactive) throughout.

`O=C/C(=C1/C=Cc2cc([N+](=O)[O-])ccc2S1)c1ccccc1`: the GI50 in the assay on DU-145 and with T47D was > 100 µM (inactive) each time.

On to `COc1ccc2[nH]c3c(C)c4ccncc4c(C)c3c2c1`, for which the GI50 with SNB-78 was 2.69 µM (inactive); in the assay with XF498, 2.7 µM (inactive); in the assay on HOP-18 it was 1.29 µM (inactive).

With `COc1ccc(C2c3cc4c(cc3OC(NCCO)C2C)OCO4)cc1` (centres undefined), the figures for the GI50 in the assay on BT-549, in the assay with DU-145 and in the assay with T47D were 16.7 µM (inactive), 29.4 µM (inactive) and 30.3 µM (inactive), respectively.

For the compound `CCOC(=O)c1c[nH]c2cc3c(cc2c1=O)CCS3(=O)=O.CCOC(=O)c1c[nH]c2ccc3c(c2c1=O)S(=O)(=O)CC3`, the GI50 with SNB-78 was > 100 µM (inactive); with XF498 it was > 100 µM (inactive); with M19-MEL it was > 100 µM (inactive); in the assay with HOP-18, 97.1 µM (inactive).

For the compound `C[C@]12CC/C(=N\O)C=C1CC[C@@H]1[C@@H]2CC[C@]2(C)C(=N/O)/C(=C/c3cccnc3)C[C@@H]12`, the values for the GI50 with BT-549 and with DU-145 were 12.6 µM (inactive) and 21.8 µM (inactive), respectively.

Turning to `Cc1ccc(C#CS(=O)(=O)C(F)(F)F)cc1`, the GI50 in the assay on SNB-78, in the assay with XF498, with M19-MEL and in the assay with HOP-18 was > 100 µM (inactive) in each case.

In the case of `CN(C)CCCNC(=O)N/N=C/c1ccccc1`, the GI50 in the assay with SNB-78, in the assay with XF498, with M19-MEL and with HOP-18 was > 100 µM (inactive) each time.

Take `CC(=O)SCCC1c2[nH]c3ccccc3c2CCN1O` (centres undefined): the results for the GI50 with LXFL 529, with M19-MEL and in the assay with HOP-18 were 56.4 µM (inactive), > 100 µM (inactive) and > 100 µM (inactive), respectively.

Consider `CC(=O)OC1(C)C=CC(=O)C=C1`, for which the GI50 was 57.3 µM (inactive) in the assay with BT-549 and 36.6 µM (inactive) in the assay with DU-145.

`COc1ccc(/C=C2\C(=O)N(C(=O)c3ccc(NC(C)=O)cc3)N=C2C)cc1`: the GI50 in the assay with SNB-78, with XF498, in the assay on M19-MEL and with HOP-18 was > 100 µM (inactive) in each case.

With `CC(C)(C)C1=C(Br)C(Br)(C(C)(C)C)OP1(=O)c1ccccc1` (centres undefined), the GI50 is > 100 µM (inactive) in the assay with DU-145 and 31.5 µM (inactive) in the assay on T47D.

Take `Nc1ccccc1Sc1ccc(Cl)cc1`: the GI50 in the assay with LXFL 529 is 38.2 µM (inactive); in the assay on SNB-78 it was 17 µM (inactive); with M19-MEL, 23 µM (inactive); with HOP-18, 43.2 µM (inactive).

Take `CC1=NN(C(=O)c2ccccc2O)C(=O)/C1=C/c1c(O)ccc2ccccc12`: the GI50 with LXFL 529 was 1.72 µM (inactive); with SNB-78, 26.6 µM (inactive); in the assay with BT-549 it was 4.7 µM (inactive); in the assay on XF498, 4.86 µM (inactive); in the assay on M19-MEL, 0.46 µM (active); with DU-145, 0.607 µM (active). The GI50 in the assay with T47D is 41.1 µM (inactive).

Turning to `CSc1ncnc2c1ncn2CCC#N`, the GI50 in the assay with DU-145 was > 100 µM (inactive).

In the case of `CCCCN(C(=O)c1ccccc1)C1CCC(=O)c2[nH]c3ccccc3c21` (centres undefined), the results for the GI50 in the assay with BT-549, in the assay on DU-145 and with T47D were 36.9 µM (inactive), 75 µM (inactive) and 26.9 µM (inactive), respectively.

Consider `C=CCC12CC(=O)C=C1CCC1(C2)OCCO1` (centres undefined), for which the GI50 with LXFL 529, in the assay with SNB-78, with M19-MEL, with HOP-18 and with RXF 631 was > 100 µM (inactive) throughout.

In the case of `O=[N+]([O-])c1cccc2nccc(NCC(O)CO)c12` (centres undefined), the GI50 in the assay on BT-549 is 14.2 µM (inactive); in the assay with DU-145, 26.3 µM (inactive); with T47D, 24.2 µM (inactive).

Regarding `CCOC(=O)C(=Cn1c(=S)[nH]c2ccc([N+](=O)[O-])cc21)C(=O)OCC`, the figures for the GI50 with DU-145 and in the assay on T47D were > 100 µM (inactive) and 59.6 µM (inactive), respectively.

In the case of `O=C1C=C(Sc2ccccc2)c2nccc3c2c1nc1ccccc13`, the GI50 in the assay on BT-549 was 16 µM (inactive); in the assay with DU-145, 40.9 µM (inactive).

Consider `O=C(O)c1ccc(Nc2c3ccccc3nc3ccccc23)cc1`, for which the figures for the GI50 in the assay on SNB-78, in the assay with M19-MEL and in the assay on HOP-18 were 30.8 µM (inactive), 66.7 µM (inactive) and > 100 µM (inactive), respectively.

For the compound `CN1CC[C@]2(C)c3c(O)cccc3CC3CCCC1C32C` (some centres undefined), the GI50 was > 100 µM (inactive) in the assay on LXFL 529; > 100 µM (inactive) in the assay with SNB-78; 59.6 µM (inactive) with XF498; > 100 µM (inactive) with M19-MEL; 54.1 µM (inactive) with HOP-18; > 100 µM (inactive) with RXF 631.

Consider `CCC(C)[C@@H]1NC(=O)[C@@H]2CCCN2C(=O)C(CC(O)CCl)OC(=O)CCNC(=O)[C@H](C)N(C)C(=O)[C@H](C(C)C)N(C)C1=O` (some centres undefined) (cyclo([Ile(3ξ)][NMeV][NMeA][βAla][Pentanoyl(2-O,4-OH,5-Cl)]P)), for which the GI50 is > 100 µM (inactive) in the assay with BT-549, > 100 µM (inactive) in the assay with DU-145 and 3.94 µM (inactive) with T47D.

In the case of `COc1c(-c2ccc3c(c2)OCO3)oc2cc3c(c(OC)c2c1=O)OCO3` [MELITERNATIN], the results for the GI50 with BT-549, in the assay on DU-145 and in the assay with T47D were 12.8 µM (inactive), 30.5 µM (inactive) and 16.2 µM (inactive), respectively.

The record behind these values is ChEMBL document CHEMBL1201862, “PubChem BioAssay data set” (2004).
